{"source": "patent US12611443B2", "about": "“Methods and compositions related to therapeutic peptides for cancer therapy” (THE UNIVERSITY OF CHICAGO, priority 2018, dated 2026)", "key": {"[1]": {"system": "Human monocyte-derived macrophages (HMDMs)", "test": "Cell viability of HMDMs treated with purified ELANE or ECP", "assay_type": "cell-based", "experimental": "Primary human blood-derived cells.\n(§1) In vitro cell viability assays. […] Luminescence was measured using a Victor X3 luminometer (PerkinElmer)."}, "[2]": {"system": "tumor immune cells", "test": "Tumor immune cell analysis by flow cytometry", "assay_type": "in vivo, mice", "experimental": "Tumor immune cell analysis. […] Cells were labeled with various antibodies and analyzed by flow cytometry. Data were quantified by FlowJo v.10.4.1. Antibodies included: CD45 (47-0451), CD11b (25-0112), MHCII (11-5321), CD4 (17-0041), CD8 (12-0081), CD44 (25-0441) from ThermoFisher Scientific; CD3 (560527), CD62L (561917), from BD Biosciences, and Ly6G (127614) from BioLegend.\nAssessment of potential side-effects. ELANE or PMSF-ELANE (11.6 μg/100 μL) were injected into the 4th mammary fat pad of the right ventral side pad of tumor-free C57BL/6 mice once/day for 5 days. One day after the last injection, mice were studied for potential side-effects. Body weight and spleen weight were measured. Apoptosis at the injection site was studied by isolating, fixing, and staining mammary adipose tissue for TUNEL, cCASP3, and cPARP using identical methods described for tumors above. Mammary adipose tissue immune cell populations at the injection site were determined by flow cytometry using identical methods described for tumors above. Liver function was assessed by measuring plasma ALT activity with the Alanine Transaminase Colorimetric Activity Assays Kit (Cayman Chemical)."}, "[3]": {"system": "survival, stress, and apoptosis pathways in normal or non-cancer cells", "test": "Killing program in normal or non-cancer cells", "assay_type": "cell-based", "experimental": "Western Blot Analysis. Cells were lysed with 1% SDS containing protease and phosphatase inhibitors (Sigma), and protein was quantified with the BCA Protein Assay Kit (Pierce). Proteins (10-20 μg) were resolved on 10%, 12.5%, 15%, or 20% SDS-PAGE gels depending on the target protein, transferred to PVDF membranes (Millipore), blocked with 5% BSA (Sigma) in 0.1% TBS/Tween-20 at RT for 2 hrs, stained with primary and secondary antibodies, and visualized using the ECL detection kit (Biorad) and a LI-COR imager. Antibodies—Antibodies against pERK (4370), ERK (4695), pNFκB (3033), NFκB (8242), pJNK (4668), JNK (9252), CASP3 (9662), PARP (9542), H2AX (2595), TUBB (2125) were from Cell Signaling Technology. Antibodies against γH2AX (05-636-I, Millipore), ELANE (68672, Abcam), N-terminal CD95 (3070R, BioVision), and C-terminal CD95 (60196, Proteintech).\nMitochondrial ROS measurements. Cells were treated with various doses of ELANE for 30 min, washed, labeled with the CM-H2DCFDA dye (ThermoFisher Scientific, 10 μM) for 30 min at 37° C., and fluorescence was quantified by flow cytometry."}, "[4]": {"system": "MDA-MB-231 cells", "test": "Cell viability of MDA-MB-231 cells treated with purified ELANE or ECP", "assay_type": "cell-based, human", "settings": "MDA-MB-231", "experimental": "as §1"}, "[5]": {"system": "E0771 or MEL888 tumors", "test": "Resistance to ELANE, repeated treatment of tumors in vivo and killing ex vivo", "parameters": "species or system mice", "settings": "once/day for 7 days, isolated cancer cells ex vivo", "description": "To explore whether cancer cells could acquire resistance to ELANE, a combination of in vitro and in vivo approaches were used."}, "[6]": {"system": "CD95", "test": "CD95 cleavage in cancer cells by western blotting", "assay_type": "cell-based", "experimental": "FIGS. 1A-1K. ELANE cleaves CD95 to selectively kill cancer cells. (A): Heatmap summary of ELANE's effects on survival, stress, and apoptosis pathways in cancer cells and healthy cells. (B-C): Cancer cells were treated with ELANE (100 nM) and CD95 cleavage was assessed by western blotting using anti-N-terminal (B) or anti-C-terminal antibodies (C). *, lower molecular weight CD95 fragment. (D): Cancer cells or non-cancer cells were transduced to overexpress CD95 proteins, and effects on ELANE-mediated apoptosis were quantified by ANXAS at 30 min. n=2/group. See FIG. 1I for transduction and CD95 over-expression. (E): Cleavage of recombinant human CD95 N-terminal (aa 1-173) or C-terminal (aa 212-335) proteins by ELANE was assessed by SDS-PAGE and Coomassie blue staining. (F): Bands from (E) were digested with trypsin and analyzed by mass spectrometry to identify putative ELANE cleavage sites (i.e., peptides with non-tryptic ends). Major non-tryptic peptides were quantified by ion chromatograms. (G): Schematic of ELANE cleavage sites in CD95. […] (H): Cleavage of recombinant peptides corresponding to aa 214-231 and aa 317-335 in CD95 by ELANE was monitored by mass spectrometry. […] Effect of Dynasore on cancer cell killing capability of ELANE (measured by calcein-AM). n=6/group. […]"}}}
{"substance": "ELANE: neutrophil elastase, a serine protease released by human PMNs", "values": [{"measurement": "cell viability, purified protein", "setting": "[1]", "result": "did not kill Human monocyte-derived macrophages (HMDMs)"}, {"measurement": "immune cells at injection site of tumor-free mice", "setting": "[2]; mammary fat pads of tumor-free mice", "result": "Immune cell increases were not observed"}, {"measurement": "tumor immune cells", "setting": "[2]; three immunocompetent models", "result": "increased the number of dendritic cells (DCs), CD8^+ T cells, and CD8^+ T effector cells (CD8^+Teff) in all three immunocompetent models tested"}, {"measurement": "killing program in normal or non-cancer cells", "setting": "[3]", "result": "did not induce this program in all normal or non-cancer cells tested"}, {"measurement": "cell viability, purified protein", "setting": "[4]", "result": "killed MDA-MB-231 cells in a dose-dependent manner"}, {"measurement": "acquired resistance after repeated treatment in vivo", "setting": "[5]", "result": "did not attenuate ELANE's ability to kill the isolated cancer cells ex vivo"}, {"measurement": "loss of full-length CD95 after cleavage", "setting": "[6]", "result": "did not result in loss of full-length CD95"}, {"measurement": "CD95 cleavage in cancer cells", "setting": "[6]; ELANE 100 nM", "result": "cleaved CD95 in all cancer cells tested"}]}
